Experimental findings from patent US20050119301A1, “Treatment of restenosis” (priority 2001, published 2005) are described below.

The test system of assay [1] is IMA-derived human VSMC primed with PDGF BB. The experiment in a line: PDGF BB-induced VSMC DNA synthesis, proliferation and cell number. The format is cell-based. The settings on record: for proliferation of IMA cells primed with PDGF BB (in words): Cpd. 7 at concentrations as low as 0.1 nM; for effect of ER antagonist ICI 182780 on the inhibitory effect: ICI 182780 100 nmol/L. As to the method: Cell proliferation was induced by a variety of growth factors such as serum and platelet derived growth factor (PDGF).
Media was changed to LG serum-free DMEM and cells were treated with [^3H]-thymidine at 1 μCi/well for 3 hours. Cells were washed twice with ice cold Dulbecco's PBS. Next, ice cold 0.2M HClO4 (1 ml/well) was added and cells were incubated on ice for 30 min. Cells were then washed three times with 0.5 ml/well of ice cold 0.2M HClO4. Media (0.5 ml/well of 0.2 M NaOH) was replaced and cells were incubate at 37° C. After 1 hour, cells were treated with acetic acid (6%, 0.2 ml/well), transferred to scintillation vials with 3 ml scintillation liquid (Instagel) and counted for 2 min per vial.
The effect of Cpd. 5 and Cpd. 7 was tested further in IMA-derived human VSMC primed with PDGF BB instead of serum. […] (FIG. 12). This effect was equivalent to that observed with estradiol. Cpd.
In further experiments Cpd. […] 7 at 100 nmol/L), indicating ER-mediation. […] 7 (1-100 nmol/L).

In assay [2] the target is T1, Soybean 15-lipoxygenase (SLO) (Glycine max, UniProt P08170).
T1 construct: purchased Sigma, St. Louis, Mo
T1 sequence (P08170 1-839): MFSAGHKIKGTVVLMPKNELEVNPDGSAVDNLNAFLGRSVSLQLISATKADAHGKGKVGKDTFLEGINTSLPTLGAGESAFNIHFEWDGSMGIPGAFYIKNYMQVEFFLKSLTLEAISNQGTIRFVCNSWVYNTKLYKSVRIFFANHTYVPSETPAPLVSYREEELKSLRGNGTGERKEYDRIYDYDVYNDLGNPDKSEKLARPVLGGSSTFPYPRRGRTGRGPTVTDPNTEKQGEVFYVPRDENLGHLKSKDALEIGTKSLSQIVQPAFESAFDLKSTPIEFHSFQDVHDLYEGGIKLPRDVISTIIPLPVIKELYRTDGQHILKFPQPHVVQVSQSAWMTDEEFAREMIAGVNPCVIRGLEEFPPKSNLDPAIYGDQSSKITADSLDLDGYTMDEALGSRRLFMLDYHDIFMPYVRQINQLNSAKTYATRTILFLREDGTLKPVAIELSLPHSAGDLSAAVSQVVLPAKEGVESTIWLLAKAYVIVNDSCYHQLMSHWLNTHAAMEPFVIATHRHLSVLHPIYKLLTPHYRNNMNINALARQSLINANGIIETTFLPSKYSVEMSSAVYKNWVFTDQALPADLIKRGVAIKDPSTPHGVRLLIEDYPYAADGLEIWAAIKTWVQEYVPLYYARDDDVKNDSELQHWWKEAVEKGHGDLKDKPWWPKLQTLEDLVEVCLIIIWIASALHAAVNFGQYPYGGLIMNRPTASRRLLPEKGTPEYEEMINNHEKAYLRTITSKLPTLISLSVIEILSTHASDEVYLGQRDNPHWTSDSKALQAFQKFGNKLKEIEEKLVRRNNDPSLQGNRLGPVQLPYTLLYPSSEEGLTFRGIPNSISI
Nature of the assay: Inhibition of lipoxygenase, SLO-induced oxidation of linoleate. Format: biochemical. Details: dose or concentration left out as unconfirmed. As to the method: Soybean 15-lipoxygenase (SLO) is a suitable model of 15-lipoxygenase and was therefore used to assess the ability of Cpd. 7, Cpd. 8 and Cpd. 12 to inhibit this enzyme. SLO-induced oxidation of linoleate was performed as described previously (Upston et al., 1996). Briefly, linoleate (100 mM) in PBS was oxidized by SLO (60 U/mL) in the absence and presence of 10 mM Cpd. 7, Cpd. 8 or Cpd. 12, or 100 mM eicosatetraynoic acid (ETYA, positive control). Formation of linoleate hydroperoxide was monitored by UV 234 nm using the Perkin Elmer's UV/Vis Lambda 40 spectrophotomneter. The test was performed twice as single analysis. An appropriate concentration of alcohol (ethanol and isopropanol; 0.13% -0.2% v/v) was included in the respective control samples.

In assay [3] the test system is C57/B16 mice. Nature of the assay: Mouse model of neointimal hyperplasia after mechanical endothelial damage. The settings on record: for effect on neointimal proliferation (in words) / neointimal proliferation, intimal thickness: 4 weeks after surgery; for neointimal proliferation, intimal thickness: in chow, surgery only 50±5%, no surgery 5±1%. Format: in vivo. From the text: The key feature of atherosclerosis in humans is vascular smooth muscle cell (VSMC) migration from the arterial media to the intima, followed by proliferation within the intima. The animal model of atherosclerosis used in this experiment aimed to induce VSMC migration and neointimal proliferation by mechanical damage to the endothelium. A probe was introduced into the femoral artery of the mouse and was passed through the iliac artery to the bifurcation of the aorta. The probe was then withdrawn and the femoral artery ligated to prevent haemorrhage. Colateral circulation prevents any limb-associated ischaemia. Neointimal proliferation occurred in the iliac artery over the following 4 weeks.
Proliferation was enhanced by feeding the mouse cholesterol during this time (commencing one week before surgery). At four weeks, the mice were sacrificed and the iliac vessels on both sides are harvested (the non-operated vessel was used as a control). Neointimal proliferation is expressed as the ratio of the intimal area to the intimal plus media area.
Atherosclerosis was induced in the femoral artery of each mouse by mechanically removing the endothelium using a probe. The ability of isoflavone compounds to inhibit the atherosclerotic response was assessed by comparing treatment and placebo groups. C57/B16 mice (8-10 week old male) were anaesthetized, and the right femoral artery was de-endothilialized using a dissection microscope. These mice were also fed with a 2% cholesterol diet to enhance the progression of the disease. The mice were sacrificed at week 4. Their treated (right) and control (left) arteries were both collected and fixed in formalin for histopathological evaluation.
The mice were fed a diet of 2% cholesterol mixed with normal mouse chow for a week prior to surgery. The treatment groups were fed the chow with Cpd. 5 or Cpd. 12 or Cpds. 5+12. Mice were anaesthetised with Avertin, and angioplasty of the femoral artery was performed. After surgery, the mice were moved onto a warm mat in a quiet, darkened area and their recovery closely monitored. They were housed in sterile cages with sterile bedding to avoid infection. The mice continued a diet of cholesterol mixed with normal mouse chow for the next 4 weeks. The mice were euthanased at 4 weeks postsurgery. Their femoral arteries were collected for pathological examination. Sections were evaluated by image analysis to determine the area of the various sections of the arterial wall, and the numbers of cells in each area. The primary parameter being evaluated was the increase in the intimal area, expressed as the ratio of the area of the intima versus the area of the intima plus media. The interval sections (every 50 μm, or every ten sections) were mounted and stained with H & E. The cross-sectional areas of the endothelium, intima and media were evaluated, using image analysis.

“Also recorded” adds a separate entry of the source.

For the molecule `Oc1ccc(C2COc3cc(O)ccc3C2O)cc1` (stereo not shown) [Cpd. 7], the “PDGF BB-induced increases in cell number” value in assay [1] (1-100 nmol/L) is reported as “partly but significantly reduced”. Also, the “proliferation of IMA cells primed with PDGF BB (in words)” value in assay [1] was “inhibited proliferation”. In addition, the inhibition at 0.001 µM in assay [1] (Homo sapiens, VSMC, 3 h, 1 nmol/L, read-out: inhibition of PDGF BB-induced DNA synthesis ([3H]-thymidine incorporation)) turned out to be 10%. Also, the inhibition at 0.01 µM in assay [1] (Homo sapiens, VSMC, 3 h, 10 nmol/L, read-out: inhibition of PDGF BB-induced DNA synthesis ([3H]-thymidine incorporation)) turned out to be 17%. Moreover, the inhibition at 0.1 µM in assay [1] (Homo sapiens, VSMC, 3 h, 100 nmol/L, read-out: inhibition of PDGF BB-induced DNA synthesis ([3H]-thymidine incorporation)) stood at 17%. The “effect of ER antagonist ICI 182780 on the inhibitory effect” value in assay [1] (compound at 100 nmol/L) was “partly abolished”; in assay [1] (compound at 1-10 nmol/L), “completely abolished”. The “inhibition of soybean 15-lipoxygenase (in words)” value (“inhibition … (in words)” for short) in assay [2] is given as “neither Cpd. 7 nor Cpd. 8 were able to inhibit SLO”.

`O=C1c2ccc(O)cc2OCC1c1ccc(O)cc1` (stereo not shown) [Cpd. 5]: in assay [1], the “proliferation of IMA cells primed with PDGF BB (in words)” value was “no observed effect on cellular proliferation”. Also, in assay [3] (4 weeks), the “reduction of neointimal area” value is given as “approximately 50%”. In assay [3], the “effect on neointimal proliferation (in words)” value was “significantly reduced” and the “neointimal proliferation, intimal thickness” value amounted to 30±6%.

On to `Oc1ccc(C2COc3cc(O)ccc3C2O)cc1` (stereo not shown) [Cpd. 8], for which the “inhibition … (in words)” value in assay [2] was “neither Cpd. 7 nor Cpd. 8 were able to inhibit SLO”.

On to `Oc1ccc(C2=Cc3ccc(O)cc3OC2)cc1` [Cpd. 12], for which the “inhibition … (in words)” value in assay [2] is “effective inhibitor of lipoxygenase type-1”. In assay [3], the “effect on neointimal proliferation (in words)” value was “no detectable effect; also recorded: no appreciable effect on neointimal proliferation” and the “neointimal proliferation, intimal thickness” value is recorded as 50±29%.
